Reference: paper PMC10223019, “Preclinical Evaluation of a PSMA-Targeting Homodimer with an Optimized Linker for Imaging of Prostate Cancer” (Molecules, 2023)
Several values for one entry are separate records, joined by “and”; a condition that tells them apart may be missing. Identical values can stand only once.

How the values were obtained:
[1] = target: T1, Recombinant human PSMA (rhPSMA) (Homo sapiens, UniProt Q04609); experiment: NAALADase assay (competitive inhibition, Amplex Red glutamate readout); format: biochemical; conditions: rhPSMA, substrate Ac-Asp-Glu, 1 h 37 °C
T1 construct: purchased R&D systems, Abingdon, UK
Protocol: Recombinant human PSMA (rhPSMA; R&D systems, Abingdon, UK) was diluted in assay buffer (50 mM HEPES, 0.1 M NaCl, pH 7.5) to 0.4 μg/mL. The substrate Ac–Asp–Glu (40 μM) was mixed with the synthesized derivatives and with a reference (PSMA-617) at concentrations ranging from 10^−6 to 10^−13 M in a final volume of 12.5 μL assay buffer. The mixtures were combined with 12.5 μL of the rhPSMA solution and incubated for 1 h at 37 °C in 384-well black polystyrene microplates (ThermoFisher, Bleiswijk, The Netherlands). The amount of glutamate released was measured by incubating with 25 μL of a working solution of the Amplex Red glutamic acid kit (ThermoFisher, Bleiswijk, The Netherlands) at 37 °C for 30 min. Fluorescence was measured with a HIDEX Sense Optical System (Goedereede, The Netherlands) with excitation at 535 nm and emission at 590 nm. Data were normalized and analyzed using a one-site total binding regression with GraphPad Prism v9.0 (GraphPad Software, San Diego, CA, USA).

[2] = Stability in phosphate-buffered saline (PBS), radio-HPLC; format: physicochemical; conditions: 24 h post-incubation, 37 °C, indium-111 labeled, intact fraction
Protocol: [^111In]In-22 or [^111In]In-30 (~10 MBq, 20 µL) was mixed with 80 μL of PBS (0.01 M, pH 7.4) and incubated at 37 °C for up to 24 h. A sample of the PBS solution was loaded directly onto the radio-HPLC at 1, 4, and 24 h post-incubation.

[3] = Stability in mouse serum, radio-HPLC; format: in vitro ADME; conditions: 24 h post-incubation, 37 °C, indium-111 labeled, intact fraction
Protocol: [^111In]In-22 or [^111In]In-30 (~35 MBq, 70 µL) was mixed with 330 μL of mouse serum and incubated at 37 °C for up to 24 h. After 1, 4, and 24 h incubation, 50 μL of the mouse serum solution was added to a separate vial containing 50 µL of acetonitrile. The sample was centrifuged at 5000× g for 20 min. The supernatant was analyzed by radio-HPLC.

[4] = Stability in aqueous solution (LC-MS); format: physicochemical; conditions: water, room temperature
Protocol: Dimerization was performed by elongation of 16 with 3-tritylthiopropionic acid, and reaction with 3,6-dichlorotetrazine following a biphasic protocol after cleavage from the solid support. Finally, addition of the chelator DOTA-TCO 26 was performed via the inverse electron-demand Diels–Alder reaction (IEDDA) to yield the dimeric product 27. However, it was noticed that 27 was not stable in aqueous solution, with degradation observed by LC-MS 20 min after incubation in water at room temperature. […] We hypothesized that it could originate from intramolecular interaction between the sulfur and the carboxylic acid group of the aspartic acid. Therefore, we modified the design of the dimer to include a longer spacer between 16 and the tetrazine. We replaced the 3-mercaptopropionic acid with a 6-mercaptohexanoic acid spacer. The resulting compound 30 (Scheme 2), obtained after dimerization and IEDDA reaction, was radiolabeled with In-111 and obtained in high RCY (>99%) and RCP (92.3%). It was stable in aqueous media and in the radiolabeling conditions, but also in PBS and mouse serum (>90% intact [^111In]In-30 at 24 h; Figure S7).

PSMA = target: PSMA; design: method as in PMID 30097503; conditions: cited from earlier work

T1 sequence (Q04609 whole entry): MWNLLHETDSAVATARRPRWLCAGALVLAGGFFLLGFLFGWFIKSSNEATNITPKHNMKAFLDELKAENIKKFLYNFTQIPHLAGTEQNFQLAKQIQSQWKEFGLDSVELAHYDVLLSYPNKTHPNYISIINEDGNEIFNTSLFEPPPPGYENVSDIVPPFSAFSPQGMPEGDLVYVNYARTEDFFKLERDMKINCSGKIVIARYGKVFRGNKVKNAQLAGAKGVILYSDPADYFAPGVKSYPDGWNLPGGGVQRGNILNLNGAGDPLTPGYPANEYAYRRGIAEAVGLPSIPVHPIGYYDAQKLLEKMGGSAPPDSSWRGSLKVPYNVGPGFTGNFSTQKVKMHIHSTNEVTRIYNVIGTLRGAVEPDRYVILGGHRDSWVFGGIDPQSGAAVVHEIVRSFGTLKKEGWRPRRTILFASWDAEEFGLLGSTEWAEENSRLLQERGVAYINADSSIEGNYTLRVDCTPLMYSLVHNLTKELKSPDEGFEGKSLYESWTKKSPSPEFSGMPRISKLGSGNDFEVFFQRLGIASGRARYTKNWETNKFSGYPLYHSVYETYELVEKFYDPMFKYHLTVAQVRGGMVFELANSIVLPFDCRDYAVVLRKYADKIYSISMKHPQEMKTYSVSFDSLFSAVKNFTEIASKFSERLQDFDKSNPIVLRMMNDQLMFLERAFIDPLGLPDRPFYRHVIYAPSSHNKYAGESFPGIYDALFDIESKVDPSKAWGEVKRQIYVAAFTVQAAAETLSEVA

IC50 [1] | Stability in PBS (%) [2] [%] | Stability in Mouse Serum (%) [3] [%] | Stability in aqueous solution [4] | SMILES | Ki (PSMA) [nM]
1.05 nM and 1 to 1.6 nM | > 90 | > 90 | stable | CC(C)CC(NC(=O)C(Cc1ccccc1)NC(=O)C(CC(=O)O)NC(=O)CCCCCSC1=NNC(SCCCCCC(=O)NC(CC(=O)O)C(=O)NC(Cc2ccccc2)C(=O)NC(CC(C)C)C(O)CC(=O)NCCCCCC(=O)NCCCCC(NC(=O)NC(CCC(=O)O)C(=O)O)C(=O)O)=C2CCC(OC(=O)NCCCNC(=O)CN3CCN(CC(=O)O)CCN(CC(=O)O)CCN(CC(=O)O)CC3)CCCC12)C(O)CC(=O)NCCCCCC(=O)NCCCCC(NC(=O)NC(CCC(=O)O)C(=O)O)C(=O)O [Compound 30, [EuK(Ahx-Sta-L-Phe-Asp-SHx)]2-Tz-TCO-DOTA] | –
– | – | – | – | N[C@@H](CCC(=O)O)C(=O)[O-].[Na+] [Monosodium glutamate] | 900
